Test system: 922993-354-T-J3-PDC complex spheroids, viability
Experiment: Anticancer human tumor 922993-354-T-J3-PDC patient-derived endometrial carcinoma cell line growth inhibition [GQUAD]
Conditions: for IC50: curve of first compound; for viability, T/C: stronger effect = lower value
Summary of the method: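 Viability of tumor cells grown as complex spheroids with endothelial and stromal cells, exposed to drug combinations. Top concentration at or near clinical Cmax (else 10 microM), diluted in half-log increments.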

[1] = second compound 0.0316 µM, first compound 0.0316 µM
[2] = second compound 0.0316 µM, first compound 0.1 µM
[3] = second compound 0.0316 µM, first compound 0.316 µM
[4] = second compound 0.0316 µM, first compound 1 µM
[5] = second compound 0.0316 µM, first compound 3.16 µM
[6] = second compound 0.0316 µM, first compound 10 µM
[7] = second compound 0.1 µM, first compound 0.0316 µM
[8] = second compound 0.1 µM, first compound 0.1 µM
[9] = second compound 0.1 µM, first compound 0.316 µM
[10] = second compound 0.1 µM, first compound 1 µM
[11] = second compound 0.1 µM, first compound 3.16 µM
[12] = second compound 0.1 µM, first compound 10 µM
[13] = second compound 0.316 µM, first compound 0.0316 µM
[14] = second compound 0.316 µM, first compound 0.1 µM
[15] = second compound 0.316 µM, first compound 0.316 µM
[16] = second compound 0.316 µM, first compound 1 µM
[17] = second compound 0.316 µM, first compound 3.16 µM
[18] = second compound 0.316 µM, first compound 10 µM
[19] = second compound 1 µM, first compound 0.0316 µM
[20] = second compound 1 µM, first compound 0.1 µM
[21] = second compound 1 µM, first compound 0.316 µM
[22] = second compound 1 µM, first compound 1 µM
[23] = second compound 1 µM, first compound 3.16 µM
[24] = second compound 1 µM, first compound 10 µM
[25] = second compound 3.16 µM, first compound 0.0316 µM
[26] = second compound 3.16 µM, first compound 0.1 µM
[27] = second compound 3.16 µM, first compound 0.316 µM
[28] = second compound 3.16 µM, first compound 1 µM
[29] = second compound 3.16 µM, first compound 3.16 µM
[30] = second compound 3.16 µM, first compound 10 µM
[31] = second compound 10 µM, first compound 0.0316 µM
[32] = second compound 10 µM, first compound 0.1 µM
[33] = second compound 10 µM, first compound 0.316 µM
[34] = second compound 10 µM, first compound 1 µM
[35] = second compound 10 µM, first compound 3.16 µM
[36] = second compound 10 µM, first compound 10 µM
[37] = second compound 0.0316 µM, first compound 0.000999 µM
[38] = second compound 0.0316 µM, first compound 0.00316 µM
[39] = second compound 0.0316 µM, first compound 0.00999 µM
[40] = second compound 0.0316 µM, first compound 0.0999 µM
[41] = second compound 0.1 µM, first compound 0.000999 µM
[42] = second compound 0.1 µM, first compound 0.00316 µM
[43] = second compound 0.1 µM, first compound 0.00999 µM
[44] = second compound 0.1 µM, first compound 0.0999 µM
[45] = second compound 0.316 µM, first compound 0.000999 µM
[46] = second compound 0.316 µM, first compound 0.00316 µM
[47] = second compound 0.316 µM, first compound 0.00999 µM
[48] = second compound 0.316 µM, first compound 0.0999 µM
[49] = second compound 1 µM, first compound 0.000999 µM
[50] = second compound 1 µM, first compound 0.00316 µM
[51] = second compound 1 µM, first compound 0.00999 µM
[52] = second compound 1 µM, first compound 0.0999 µM
[53] = second compound 3.16 µM, first compound 0.000999 µM
[54] = second compound 3.16 µM, first compound 0.00316 µM
[55] = second compound 3.16 µM, first compound 0.00999 µM
[56] = second compound 3.16 µM, first compound 0.0999 µM
[57] = second compound 10 µM, first compound 0.000999 µM
[58] = second compound 10 µM, first compound 0.00316 µM
[59] = second compound 10 µM, first compound 0.00999 µM
[60] = second compound 10 µM, first compound 0.0999 µM
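Also: spheroids exposed to compounds for seven days.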
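For viability, T/C in this document: 100% = DMSO vehicle control viability.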

With `C=CC(=O)N1CCN(c2nc(=O)n(-c3c(C)ccnc3C(C)C)c3nc(-c4c(O)cccc4F)c(F)cc23)C(C)C1` (stereo not drawn) + Cc1[nH]c2ccc(F)cc2c1-c1nc2c3cccnc3c3ncccc3c2[nH]1 the IC50 (second compound 0.0316 µM) was > 10000 nM, the IC50 (second compound 0.1 µM) was > 10000 nM and the IC50 (second compound 0.316 µM) was > 10000 nM. The IC50 (second compound 1 µM) was > 10000 nM, the IC50 (second compound 3.16 µM) was > 10000 nM and the IC50 (second compound 10 µM) was > 10000 nM. The viability, T/C [1] was 94.6%, the viability, T/C [2] was 86% and the viability, T/C [3] was 94.8%. It also gave a viability, T/C [4] of 101%, a viability, T/C [5] of 111% and a viability, T/C [6] of 116%. The viability, T/C [7] was 106%, the viability, T/C [8] was 69.4% and the viability, T/C [9] was 99.3%. It also gave a viability, T/C [10] of 127%, a viability, T/C [11] of 92% and a viability, T/C [12] of 98.7%. It also gave a viability, T/C [13] of 130%, a viability, T/C [14] of 95% and a viability, T/C [15] of 117%. The viability, T/C [16] was 118%, the viability, T/C [17] was 114% and the viability, T/C [18] was 113%. The viability, T/C [19] was 92.9%, the viability, T/C [20] was 124% and the viability, T/C [21] was 133%. The viability, T/C [22] was 112%, the viability, T/C [23] was 93.6% and the viability, T/C [24] was 107%. The viability, T/C [25] was 114%, the viability, T/C [26] was 91.2% and the viability, T/C [27] was 105%. The viability, T/C [28] was 104%, the viability, T/C [29] was 96.2% and the viability, T/C [30] was 88%. The viability, T/C [31] was 88.7%, the viability, T/C [32] was 103% and the viability, T/C [33] was 81.3%. It also gave a viability, T/C [34] of 90.7%, a viability, T/C [35] of 103% and a viability, T/C [36] of 87.1%.

With `CCc1c2c(nc3ccc(O)cc13)-c1cc3c(c(=O)n1C2)COC(=O)[C@]3(O)CC` + Cc1[nH]c2ccc(F)cc2c1-c1nc2c3cccnc3c3ncccc3c2[nH]1 the IC50 (second compound 0.0316 µM) was 7.56 nM, the IC50 (second compound 0.1 µM) was 8.08 nM and the IC50 (second compound 0.316 µM) was 6.62 nM. For the same molecule, the IC50 (second compound 1 µM) was 8.02 nM, the IC50 (second compound 3.16 µM) was 7.57 nM and the IC50 (second compound 10 µM) was 6.77 nM. For the same molecule, the viability, T/C [37] was 91.8%, the viability, T/C [38] was 68.3% and the viability, T/C [39] was 48.7%. It also gave a viability, T/C [1] of 22.1%, a viability, T/C [40] of 25.9% and a viability, T/C [3] of 32.9%. For the same molecule, the viability, T/C [41] was 103%, the viability, T/C [42] was 81.9% and the viability, T/C [43] was 44.2%. The viability, T/C [7] was 24.4%, the viability, T/C [44] was 25.4% and the viability, T/C [9] was 33%. The viability, T/C [45] was 119%, the viability, T/C [46] was 76.1% and the viability, T/C [47] was 36.6%. The viability, T/C [13] was 23.4%, the viability, T/C [48] was 24.6% and the viability, T/C [15] was 36.5%. For the same molecule, the viability, T/C [49] was 101%, the viability, T/C [50] was 82.4% and the viability, T/C [51] was 43.4%. It also gave a viability, T/C [19] of 24.3%, a viability, T/C [52] of 22.6% and a viability, T/C [21] of 32.1%. The viability, T/C [53] was 105%, the viability, T/C [54] was 67.2% and the viability, T/C [55] was 53.6%. For the same molecule, the viability, T/C [25] was 15.6%, the viability, T/C [56] was 31.4% and the viability, T/C [27] was 28.9%. For the same molecule, the viability, T/C [57] was 102%, the viability, T/C [58] was 65.4% and the viability, T/C [59] was 48.5%. It also gave a viability, T/C [31] of 18.8%, a viability, T/C [60] of 22.9% and a viability, T/C [33] of 33.6%.

With `Cc1cccc(N(C)C(=O)C2C(O)CCN2c2nc(C)cc(C(F)(F)F)c2C#N)c1` (stereo not drawn) + Cc1[nH]c2ccc(F)cc2c1-c1nc2c3cccnc3c3ncccc3c2[nH]1 the IC50 (second compound 0.0316 µM) was > 10000 nM, the IC50 (second compound 0.1 µM) was > 10000 nM and the IC50 (second compound 0.316 µM) was > 10000 nM. The IC50 (second compound 1 µM) was > 10000 nM, the IC50 (second compound 3.16 µM) was > 10000 nM and the IC50 (second compound 10 µM) was > 10000 nM. For the same molecule, the viability, T/C [1] was 111%, the viability, T/C [2] was 112% and the viability, T/C [3] was 80.8%. For the same molecule, the viability, T/C [4] was 94%, the viability, T/C [5] was 120% and the viability, T/C [6] was 82.9%. For the same molecule, the viability, T/C [7] was 108%, the viability, T/C [8] was 122% and the viability, T/C [9] was 97.7%. The viability, T/C [10] was 135%, the viability, T/C [11] was 120% and the viability, T/C [12] was 126%. For the same molecule, the viability, T/C [13] was 90.7%, the viability, T/C [14] was 112% and the viability, T/C [15] was 74.7%. It also gave a viability, T/C [16] of 104%, a viability, T/C [17] of 87.9% and a viability, T/C [18] of 99.3%. The viability, T/C [19] was 112%, the viability, T/C [20] was 96.5% and the viability, T/C [21] was 104%. It also gave a viability, T/C [22] of 114%, a viability, T/C [23] of 102% and a viability, T/C [24] of 97.3%. It also gave a viability, T/C [25] of 123%, a viability, T/C [26] of 121% and a viability, T/C [27] of 103%. It also gave a viability, T/C [28] of 96.9%, a viability, T/C [29] of 129% and a viability, T/C [30] of 73.8%. The viability, T/C [31] was 87%, the viability, T/C [32] was 94.3% and the viability, T/C [33] was 109%. For the same molecule, the viability, T/C [34] was 111%, the viability, T/C [35] was 95.4% and the viability, T/C [36] was 123%.

`Cn1ncnc1[C@H]1c2n[nH]c(=O)c3cc(F)cc(c23)N[C@@H]1c1ccc(F)cc1` + Cc1[nH]c2ccc(F)cc2c1-c1nc2c3cccnc3c3ncccc3c2[nH]1 was tested, and the IC50 (second compound 0.0316 µM) was > 316 nM, the IC50 (second compound 0.1 µM) was > 316 nM and the IC50 (second compound 0.316 µM) was > 316 nM. The IC50 (second compound 1 µM) was > 316 nM, the IC50 (second compound 3.16 µM) was > 316 nM and the IC50 (second compound 10 µM) was > 316 nM. For the same molecule, the viability, T/C [37] was 102%, the viability, T/C [38] was 100% and the viability, T/C [39] was 83.8%. For the same molecule, the viability, T/C [1] was 88%, the viability, T/C [40] was 85% and the viability, T/C [3] was 61.5%. For the same molecule, the viability, T/C [41] was 92.4%, the viability, T/C [42] was 85.4% and the viability, T/C [43] was 80.8%. For the same molecule, the viability, T/C [7] was 97.5%, the viability, T/C [44] was 80.1% and the viability, T/C [9] was 54.1%. It also gave a viability, T/C [45] of 100%, a viability, T/C [46] of 98.6% and a viability, T/C [47] of 108%. For the same molecule, the viability, T/C [13] was 111%, the viability, T/C [48] was 122% and the viability, T/C [15] was 64.9%. The viability, T/C [49] was 110%, the viability, T/C [50] was 82.8% and the viability, T/C [51] was 100%. For the same molecule, the viability, T/C [19] was 97.1%, the viability, T/C [52] was 93.3% and the viability, T/C [21] was 69.6%. The viability, T/C [53] was 118%, the viability, T/C [54] was 92.6% and the viability, T/C [55] was 106%. It also gave a viability, T/C [25] of 84.2%, a viability, T/C [56] of 94.9% and a viability, T/C [27] of 70.6%. For the same molecule, the viability, T/C [57] was 111%, the viability, T/C [58] was 93% and the viability, T/C [59] was 119%. The viability, T/C [31] was 112%, the viability, T/C [60] was 75% and the viability, T/C [33] was 81.9%.

Reference: PubChem BioAssay AID2060489 (Molecular Pharmacology Branch, DTP, NCI, 2025)
